From PubChem BioAssay (NCI)
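Compound exposure: 48 hours, 5 concentrations, 96-well plates. TGI is the concentration that stops growth completely.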

Assays:
Experiment in all cases: NCI-60 cell line screen, 48 h
CCRF-CEM leukemia = system: CCRF-CEM leukemia
EKVX NSCLC = system: EKVX NSCLC
IGROV1 ovarian = system: IGROV1 ovarian
K-562 leukemia = system: K-562 leukemia
MALME-3M melanoma = system: MALME-3M melanoma
MDA-MB-435 = system: MDA-MB-435
NCI-H522 lung = system: NCI-H522 lung
RPMI-8226 leukemia = system: RPMI-8226 leukemia
SF-539 CNS = system: SF-539 CNS
SK-MEL-5 melanoma = system: SK-MEL-5 melanoma

SMILES	TGI (CCRF-CEM leukemia)	TGI (EKVX NSCLC)	TGI (IGROV1 ovarian)	TGI (K-562 leukemia)	TGI (MALME-3M melanoma)	TGI (MDA-MB-435)	TGI (NCI-H522 lung)	TGI (RPMI-8226 leukemia)	TGI (SF-539 CNS)	TGI (SK-MEL-5 melanoma)
CC1=C2C(=O)[C@H]3[C@@H](CC=C4C[C@@H](O)CC[C@@]43C)[C@@H]2CC[C@]12O[C@@H]1C[C@H](C)CN[C@H]1[C@H]2C	> 100 µM	> 66.7 µM	> 96.4 µM	> 100 µM	> 79.3 µM	> 100 µM	> 59.6 µM	> 100 µM	> 61.6 µM	> 61.9 µM
O=[N+]([O-])c1ccc(C2=NOC(c3ccccc3F)N2C23CC4CC(CC(C4)C2)C3)cc1 (centres undefined)	> 100 µM	> 100 µM	> 100 µM	> 100 µM	> 100 µM	> 100 µM	> 100 µM	> 100 µM	> 100 µM	> 100 µM
COCC1OC(OC2C3=C(C(C)C)CCC3(C)/C=C3\C(CCC3(O)COC)C(C)C2O)C(O)C2OC3OC12OC3(C)C1CO1 (centres undefined)	59.6 µM	> 100 µM	> 100 µM	> 100 µM	> 100 µM	> 100 µM	82.4 µM	> 100 µM	> 100 µM	67.3 µM
COc1ccc(N2C(=O)C3ON(C(C(N)=O)c4ccccc4)C(c4ccc(-c5ccccc5)cc4)C3C2=O)cc1 (centres undefined)	> 50 µM	> 50 µM	> 50 µM	> 50 µM	> 50 µM	> 50 µM	> 50 µM	> 50 µM	> 50 µM	
CC(C)(C)c1nc2c(o1)C(=O)c1ccccc1C2=O	> 29.5 µM	6.51 µM	6.04 µM	13.8 µM	1.48 µM	0.327 µM	3.85 µM	16.8 µM	3.4 µM	2.9 µM
CCOC(=O)CCC(NC(=O)c1ccc(Oc2nc3ccc(C(F)(F)F)cc3nc2-c2ccccc2)cc1)C(=O)OCC (centres undefined)	> 100 µM	64 µM	> 100 µM	> 100 µM	44.9 µM	> 100 µM	> 100 µM	> 100 µM	> 34.3 µM	> 100 µM
COc1ccc2nc3cccc([N+](=O)[O-])c3c(NCCO)c2c1	2.68 µM	0.0648 µM	0.479 µM	0.0181 µM	0.0337 µM	0.0186 µM	0.043 µM	0.019 µM	0.052 µM	0.0614 µM
O=C1Nc2cccc(Cl)c2/C1=C\c1c(Cl)nc2sccn12	> 100 µM	> 100 µM	> 100 µM	> 100 µM	> 100 µM	> 100 µM	> 100 µM	> 100 µM	18.8 µM	> 100 µM
CCOc1ccc(/C(O)=C/c2nc3ccccc3nc2/C=C(\O)c2ccc(OCC)cc2)cc1	> 100 µM	> 100 µM	> 100 µM	> 100 µM	> 100 µM	> 100 µM	> 100 µM	> 100 µM	> 100 µM	> 100 µM
O=P(Oc1ccccc1)(Oc1ccccc1)Oc1c[nH]c2ccccc12	1.5 µM	0.907 µM	20.7 µM	36.5 µM	37.5 µM	28.3 µM		1.54 µM	24 µM	24.8 µM
C[C@H](Nc1c(O)c2c(c(O)c1Cl)C(=O)C=CC2=O)C(=O)Nc1ccc([N+](=O)[O-])cc1	> 10 µM	> 10 µM	4.22 µM	> 10 µM	2.41 µM	3.04 µM	6.65 µM	> 10 µM	4.2 µM	3.14 µM
OC12COc3ccccc3C1Oc1ccccc1C2 (centres undefined)	> 100 µM	> 100 µM	> 100 µM	> 100 µM	> 100 µM	> 100 µM	> 100 µM	> 100 µM	> 100 µM	> 100 µM
C[C@]12CC[C@@H]3c4cc(OCC(F)(F)F)c(O)cc4C(=O)C[C@H]3[C@@H]1CC[C@@H]2O	> 66.3 µM	> 100 µM	> 100 µM	> 100 µM	88.1 µM	> 25.4 µM	> 100 µM	> 100 µM	22.6 µM	> 82.8 µM
COc1cc(CCCOC(=O)/C=C/c2ccc(O)c(O)c2)cc(O)c1O	> 100 µM	> 100 µM	> 100 µM	> 100 µM	> 100 µM	> 100 µM	29.2 µM	> 100 µM	90.2 µM	> 100 µM
CC(C)(C)N(Cc1ccc2c(c1)OCO2)C(=O)/C=C\S(=O)c1ccccc1 (centres undefined)	> 100 µM	20.9 µM	13.3 µM	> 100 µM	13.9 µM	9.74 µM	2.14 µM	9.54 µM	6.6 µM	12.9 µM
CN(NC(=O)CCCl)C1=NCCN1	> 100 µM	> 100 µM	> 100 µM	> 100 µM	> 100 µM	> 100 µM	> 100 µM	> 100 µM	> 100 µM	> 100 µM
CN(C)CCNc1ccc2c(=O)n(CCN(C)C)c(=O)n3c4ccc([N+](=O)[O-])cc4c(=O)c1c23	0.381 µM	2.83 µM	1.29 µM	1.94 µM	1.37 µM	1.83 µM	0.263 µM	0.605 µM	1.68 µM	2.23 µM

SMILES	TGI (CCRF-CEM leukemia)	TGI (EKVX NSCLC)	TGI (IGROV1 ovarian)	TGI (K-562 leukemia)	TGI (MALME-3M melanoma)	TGI (MDA-MB-435)	TGI (NCI-H522 lung)	TGI (RPMI-8226 leukemia)	TGI (SF-539 CNS)	TGI (SK-MEL-5 melanoma)
COc1ccc(C2SCC(=O)N2c2ccc(-n3c(-c4ccccc4)nc4ccccc4c3=O)cc2)cc1OC (centres undefined)	> 100 µM	> 100 µM	> 100 µM	> 100 µM	> 100 µM	> 100 µM	> 100 µM	> 100 µM	> 100 µM	> 100 µM
O=c1[nH]c(Nc2cccc(C(F)(F)F)c2)nc2nc[nH]c12	> 100 µM	> 100 µM	> 100 µM	> 100 µM	> 100 µM	> 100 µM	> 100 µM	> 100 µM	> 100 µM	> 100 µM
CCCCCNc1nonc1N	> 31.6 µM	> 100 µM	> 100 µM	> 100 µM	> 100 µM	> 100 µM	> 100 µM	> 100 µM	> 100 µM	> 100 µM
O=c1[nH]c(=O)n(C2CC(O)C(CO)O2)cc1OCCCc1ccccc1 (centres undefined)	> 100 µM	> 100 µM	> 100 µM	> 100 µM	> 100 µM	> 100 µM	> 100 µM	> 100 µM		> 100 µM
Cc1ccc(-c2c(C#N)c(S)n(NS(=O)(=O)c3ccc(C)cc3)c(=O)c2C#N)cc1	> 100 µM	> 100 µM	51.1 µM	> 100 µM	38.7 µM	52.8 µM	48.1 µM	> 100 µM	43.2 µM	49.2 µM
CC(C)(C)c1ccc(-c2nc3ccc([N+](=O)[O-])cc3c(=O)o2)cc1	58.2 µM	> 100 µM	> 100 µM	71.3 µM	75 µM	77 µM	40.7 µM	> 100 µM	43.9 µM	74.9 µM
CC(=O)C(=[N+]=[N-])C(=O)OC(C)(C)C#N	> 10 µM	> 10 µM	> 10 µM	> 10 µM	> 10 µM	> 10 µM		> 10 µM	> 10 µM	> 10 µM
COC(=O)C1(Cc2ccc3c(c2)CCC3)Cc2ccc3c(c2C1O)CCC3 (centres undefined)	> 100 µM	32 µM		> 100 µM	27.3 µM	27.5 µM	25.6 µM	59.4 µM	47.4 µM	22.1 µM
COc1cc(-c2oc3c(OC)c(O)c(OC)c(O)c3c(=O)c2OC)cc(O)c1OC	79.4 µM	> 100 µM	> 100 µM	> 100 µM	99.4 µM	77.6 µM	> 100 µM	> 100 µM	45.4 µM	55.6 µM
CC(C)C1(C)N=C(C(F)(F)F)c2cc(C(=O)C(F)(F)F)c3ccccc3c2N1 (centres undefined)	> 100 µM	18.4 µM	3.28 µM	> 100 µM	12.7 µM	11.3 µM	7.16 µM	> 27 µM	20.8 µM	25.9 µM
CCc1n[nH]c(=O)n1/N=C/c1ccccc1Cl	> 100 µM	29.4 µM	> 100 µM	> 100 µM	> 100 µM	> 100 µM	> 100 µM	> 100 µM	> 100 µM	> 100 µM
O=C1/C(=C\c2cccc(Oc3ccccc3)c2)S(=O)(=O)C(c2ccccc2)N1c1ccc(Cl)cc1 (centres undefined)	79.1 µM	84.5 µM	33.2 µM	56.9 µM	33.6 µM	25.4 µM	29.5 µM	> 100 µM	41.7 µM	30.5 µM
CC(OC(=O)NCn1cc(-c2ccccc2)nn1)c1ccccc1 (centres undefined)	> 100 µM	> 100 µM	> 100 µM	75.5 µM	89.9 µM	> 100 µM	> 100 µM	> 100 µM	> 100 µM	32.4 µM
CCCc1cc(=O)oc2c3c(c4c(c12)OC(C)(C)C=C4)O[C@@H](C)[C@H](C)C3=O	48.3 µM	24.6 µM	28.4 µM	27.7 µM	35.6 µM	58.8 µM	29.8 µM	31.2 µM	37.4 µM	32.3 µM
O=c1oc2ccccc2c(O)c1C(c1ccco1)c1c(O)c2ccccc2oc1=O	73.8 µM	> 100 µM	45.8 µM	> 100 µM	41.7 µM	85.4 µM	41.8 µM	66.1 µM		> 100 µM
CC1(C)N=C(C(N)=O)c2ncn(-c3ccccc3)c2N1	> 100 µM	> 100 µM	> 100 µM	> 100 µM	> 100 µM	> 100 µM	> 100 µM	> 100 µM	> 100 µM	> 100 µM
